Measurements as given in ChEMBL document CHEMBL3885861, “Open TG-GATES”.

Species on record: Rattus norvegicus
Assay: Open TG-GATES - Regimen: Daily Repeat
Type: toxicity, organism-based, Sprague-Dawley
Parameters: regimen Daily Repeat, gender Male, age 6 weeks
Conditions: in vivo, po, 1000 mg/kg, route gavage, dose level High; for APTT / Bas / Eos / Fbg / Hb / Ht / Lym / MCH / MCHC / MCV / Mono / Neu / PT / Plat / RBC / Ret / WBC: tissue Blood; for KIDNEY_L / KIDNEY_R / KIDNEY_TOTAL: tissue Kidney; for LIVER: tissue Liver; for ALP / AST / BUN / CRE / Ca / Cl / DBIL / GLC / IP / K / LDH / Na / PL / RALB / TBIL / TC / TG / TP / gamma-GTP: tissue Plasma

`COc1ccc2[nH]c([S+]([O-])Cc3ncc(C)c(OC)c3C)nc2c1` (centres undefined) [OMEPRAZOLE] was tested, and the TERMINAL_BW (72 h, time 3 day) was 219.1 g, the APTT (72 h, time 3 day) was 19.8 s and the Bas (72 h, time 3 day) was 0%. The Eos (72 h, time 3 day) was 0.6%, the Fbg (72 h, time 3 day) was 196 mg/dL and the Hb (72 h, time 3 day) was 13.8 g/dL. It also gave a Ht (72 h, time 3 day) of 39.6%, a Lym (72 h, time 3 day) of 83.2% and an MCH (72 h, time 3 day) of 20.8 pg. For the same compound, the MCHC (72 h, time 3 day) was 34.8%, the MCV (72 h, time 3 day) was 59.9 fL and the Mono (72 h, time 3 day) was 3.8%. For the same compound, the Neu (72 h, time 3 day) was 11.8%, the PT (72 h, time 3 day) was 12.1 s and the Plat (72 h, time 3 day) was 132.7 x10_4/uL. The RBC (72 h, time 3 day) was 662.2 x10_4/ul, the Ret (72 h, time 3 day) was 1.7% and the WBC (72 h, time 3 day) was 99.5 x10_2/uL. It also gave a KIDNEY_L (72 h, time 3 day) of 1 g, a KIDNEY_R (72 h, time 3 day) of 1 g and a KIDNEY_TOTAL (72 h, time 3 day) of 1.9 g. It also gave an LIVER (72 h, time 3 day) of 15.4 g, an ALP (72 h, time 3 day) of 629 IU/L and an AST (72 h, time 3 day) of 46 IU/L. It also gave a BUN (72 h, time 3 day) of 17.6 mg/dL, a CRE (72 h, time 3 day) of 0.4 mg/dL and a Ca (72 h, time 3 day) of 10 mg/dL. The Cl (72 h, time 3 day) was 101.8 meq/L, the DBIL (72 h, time 3 day) was 0.094 mg/dL and the GLC (72 h, time 3 day) was 195 mg/dL. For the same compound, the IP (72 h, time 3 day) was 7.5 mg/dL, the K (72 h, time 3 day) was 3.8 meq/L and the LDH (72 h, time 3 day) was 200 IU/L. It also gave a Na (72 h, time 3 day) of 140.2 meq/L, a PL (72 h, time 3 day) of 207.4 mg/dL and an RALB (72 h, time 3 day) of 3.3 g/dL. For the same compound, the TBIL (72 h, time 3 day) was 0.2 mg/dL, the TC (72 h, time 3 day) was 120.8 mg/dL and the TG (72 h, time 3 day) was 157.2 mg/dL. For the same compound, the TP (72 h, time 3 day) was 5.6 g/dL, the gamma-GTP (72 h, time 3 day) was 2 IU/L and the TERMINAL_BW ([…], time 7 day) was 262 g. For the same compound, the TERMINAL_BW ([…], time 14 day) was 300.1 g, the TERMINAL_BW ([…], time 28 day) was 351.8 g and the APTT ([…], time 7 day) was 21.9 s. For the same compound, the Bas ([…], time 7 day) was 0%, the Eos ([…], time 7 day) was 0.6% and the Fbg ([…], time 7 day) was 215.2 mg/dL. The Hb ([…], time 7 day) was 12 g/dL, the Ht ([…], time 7 day) was 34.9% and the Lym ([…], time 7 day) was 80.4%. For the same compound, the MCH ([…], time 7 day) was 20.3 pg, the MCHC ([…], time 7 day) was 34.4% and the MCV ([…], time 7 day) was 59 fL. For the same compound, the Mono ([…], time 7 day) was 3.8%, the Neu ([…], time 7 day) was 14.6% and the PT ([…], time 7 day) was 11.9 s. For the same compound, the Plat ([…], time 7 day) was 171.4 x10_4/uL, the RBC ([…], time 7 day) was 591.8 x10_4/ul and the Ret ([…], time 7 day) was 4.3%. For the same compound, the WBC ([…], time 7 day) was 118.3 x10_2/uL, the APTT ([…], time 14 day) was 24.5 s and the Bas ([…], time 14 day) was 0%. For the same compound, the Eos ([…], time 14 day) was 0.6%, the Fbg ([…], time 14 day) was 203.8 mg/dL and the Hb ([…], time 14 day) was 11.7 g/dL. For the same compound, the Ht ([…], time 14 day) was 34.1%, the Lym ([…], time 14 day) was 82.2% and the MCH ([…], time 14 day) was 18.6 pg. For the same compound, the MCHC ([…], time 14 day) was 34.2%, the MCV ([…], time 14 day) was 54.3 fL and the Mono ([…], time 14 day) was 2.6%. The Neu ([…], time 14 day) was 13%, the PT ([…], time 14 day) was 12.7 s and the Plat ([…], time 14 day) was 139.7 x10_4/uL. For the same compound, the RBC ([…], time 14 day) was 628.4 x10_4/ul, the Ret ([…], time 14 day) was 5% and the WBC ([…], time 14 day) was 131 x10_2/uL. The APTT ([…], time 28 day) was 23.8 s, the Bas ([…], time 28 day) was 0% and the Eos ([…], time 28 day) was 0.6%. For the same compound, the Fbg ([…], time 28 day) was 196.8 mg/dL, the Hb ([…], time 28 day) was 12 g/dL and the Ht ([…], time 28 day) was 35.7%. The Lym ([…], time 28 day) was 78.6%, the MCH ([…], time 28 day) was 17.3 pg and the MCHC ([…], time 28 day) was 33.7%. It also gave an MCV ([…], time 28 day) of 51.3 fL, a Mono ([…], time 28 day) of 2.2% and a Neu ([…], time 28 day) of 17.6%. For the same compound, the PT ([…], time 28 day) was 12.3 s, the Plat ([…], time 28 day) was 124 x10_4/uL and the RBC ([…], time 28 day) was 697.2 x10_4/ul. The Ret ([…], time 28 day) was 4%, the WBC ([…], time 28 day) was 152.6 x10_2/uL and the KIDNEY_L ([…], time 7 day) was 1.1 g. For the same compound, the KIDNEY_R ([…], time 7 day) was 1.1 g, the KIDNEY_TOTAL ([…], time 7 day) was 2.1 g and the KIDNEY_L ([…], time 14 day) was 1.2 g. The KIDNEY_R ([…], time 14 day) was 1.2 g, the KIDNEY_TOTAL ([…], time 14 day) was 2.3 g and the KIDNEY_L ([…], time 28 day) was 1.2 g. It also gave a KIDNEY_R ([…], time 28 day) of 1.2 g, a KIDNEY_TOTAL ([…], time 28 day) of 2.5 g and an LIVER ([…], time 7 day) of 18.1 g. The LIVER ([…], time 14 day) was 21.2 g, the LIVER ([…], time 28 day) was 21.4 g and the ALP ([…], time 7 day) was 661.8 IU/L. The AST ([…], time 7 day) was 59.2 IU/L, the BUN ([…], time 7 day) was 16.6 mg/dL and the CRE ([…], time 7 day) was 0.4 mg/dL. The Ca ([…], time 7 day) was 10.7 mg/dL, the Cl ([…], time 7 day) was 101.4 meq/L and the DBIL ([…], time 7 day) was 0.064 mg/dL. For the same compound, the GLC ([…], time 7 day) was 187.4 mg/dL, the IP ([…], time 7 day) was 8.2 mg/dL and the K ([…], time 7 day) was 3.9 meq/L. The LDH ([…], time 7 day) was 242.4 IU/L, the Na ([…], time 7 day) was 140.6 meq/L and the PL ([…], time 7 day) was 200.8 mg/dL. The RALB ([…], time 7 day) was 3.5 g/dL, the TBIL ([…], time 7 day) was 0.1 mg/dL and the TC ([…], time 7 day) was 117.6 mg/dL. It also gave a TG ([…], time 7 day) of 62.4 mg/dL, a TP ([…], time 7 day) of 6.2 g/dL and a gamma-GTP ([…], time 7 day) of 2.6 IU/L. The ALP ([…], time 14 day) was 599 IU/L, the AST ([…], time 14 day) was 52.6 IU/L and the BUN ([…], time 14 day) was 18.2 mg/dL. It also gave a CRE ([…], time 14 day) of 0.5 mg/dL, a Ca ([…], time 14 day) of 10.8 mg/dL and a Cl ([…], time 14 day) of 102.8 meq/L. The DBIL ([…], time 14 day) was 0.072 mg/dL, the GLC ([…], time 14 day) was 191.4 mg/dL and the IP ([…], time 14 day) was 7.8 mg/dL. For the same compound, the K ([…], time 14 day) was 3.9 meq/L, the LDH ([…], time 14 day) was 195.8 IU/L and the Na ([…], time 14 day) was 141.2 meq/L. It also gave a PL ([…], time 14 day) of 206.6 mg/dL, an RALB ([…], time 14 day) of 3.6 g/dL and a TBIL ([…], time 14 day) of 0.1 mg/dL. The TC ([…], time 14 day) was 120.8 mg/dL, the TG ([…], time 14 day) was 77.8 mg/dL and the TP ([…], time 14 day) was 6.3 g/dL. It also gave a gamma-GTP ([…], time 14 day) of 2.2 IU/L, an ALP ([…], time 28 day) of 458.4 IU/L and an AST ([…], time 28 day) of 50.6 IU/L. It also gave a BUN ([…], time 28 day) of 18.2 mg/dL, a CRE ([…], time 28 day) of 0.5 mg/dL and a Ca ([…], time 28 day) of 10.7 mg/dL. For the same compound, the Cl ([…], time 28 day) was 102.2 meq/L, the DBIL ([…], time 28 day) was 0.07 mg/dL and the GLC ([…], time 28 day) was 190.8 mg/dL. The IP ([…], time 28 day) was 6.9 mg/dL, the K ([…], time 28 day) was 3.9 meq/L and the LDH ([…], time 28 day) was 119.2 IU/L. It also gave a Na ([…], time 28 day) of 142.6 meq/L, a PL ([…], time 28 day) of 185.8 mg/dL and an RALB ([…], time 28 day) of 3.8 g/dL. For the same compound, the TBIL ([…], time 28 day) was 0.1 mg/dL, the TC ([…], time 28 day) was 102.4 mg/dL and the TG ([…], time 28 day) was 49 mg/dL. It also gave a TP ([…], time 28 day) of 6.6 g/dL and a gamma-GTP ([…], time 28 day) of 2.4 IU/L.
